# Laboratory results: publication PMC13372822 (The EMBO Journal, 2026)
# Where a name gives a salt, the structure may show the parent alone.
# What was measured:
# [1] = target: T1, SUCR1 (Homo sapiens, UniProt Q9BXA5); experiment: Calcium mobilization assay, wild-type SUCR1 in HEK293 stably expressing Gα16; type: cell-based;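 for Emax: percent of the maximal response to succinate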
# T1 construct: The full-length human SUCR1 and mutations were fused after the HA signal peptide and Flag tag; HA signal peptide (N); Flag (N); expressed in transfected cells; host or cells: HEK293 stably expressing Gα16 (pcDNA6.0, transient electroporation)
# T1 sequence (Q9BXA5 1-334): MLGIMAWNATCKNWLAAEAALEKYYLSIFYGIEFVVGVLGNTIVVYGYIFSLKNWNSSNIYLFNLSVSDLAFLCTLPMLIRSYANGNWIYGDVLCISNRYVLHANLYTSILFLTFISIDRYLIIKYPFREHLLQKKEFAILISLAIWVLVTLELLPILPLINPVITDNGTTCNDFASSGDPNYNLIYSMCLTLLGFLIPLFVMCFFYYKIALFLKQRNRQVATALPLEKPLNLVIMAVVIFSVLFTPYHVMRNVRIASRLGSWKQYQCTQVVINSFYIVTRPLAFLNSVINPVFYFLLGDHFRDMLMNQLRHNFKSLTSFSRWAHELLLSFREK
# Procedure: (§1) The full-length human SUCR1 and mutations were fused after the HA signal peptide and Flag tag. The constructs were cloned into pcDNA6.0 vector for HEK293 system.
# (§2) HEK293 cells were obtained from ATCC (Manassas, VA, USA) and cultured in DMEM supplemented with 10% (v/v) FBS, 100 mg/L penicillin, and 100 mg/L streptomycin in 5% CO2 at 37 °C. For transient transfection, ~2.5 × 10^6 cells were mixed with 2 µg plasmids in 200 µL transfection buffer, and electroporation was carried out with a Scientz-2C electroporation apparatus (Scientz Biotech, Ningbo, China). The experiments were carried out 24 h after transfection. HEK293 cell lines stably expressing Gα16 were constructed by our laboratory.
# (§3) For OXGR1, plasmids were transfected into HEK293 (other receptors were transfected into HEK293 stably expressing Gα16) and seeded at a density of 4 × 10^4 per well into 96-well culture plates and incubated for 24 h at 37 °C in 5% CO2. The next day, Cells were incubated with 2 μM/L Fluo-4 AM in HBSS supplemented with 5.6 mM/L D-glucose and 250 μM/L sulfinpyrazone at 37 °C for 45 min. […] Three independent measurements were repeated, i.e., three different transfections, with three technical replicates performed for each experiment. EC50 and Emax values for each curve were calculated by Prism 8.0 software (GraphPad Software).
# [2] = target: OXGR1 (Homo sapiens, UniProt Q96P68); experiment: Calcium mobilization assay (Fluo-4 AM), wild-type OXGR1 in HEK293
# Procedure: as §1, §2, §3
# [3] = tested on: OXGR1 mutants (variant named in the endpoint); experiment: Calcium mobilization assay, OXGR1 mutants in HEK293; settings: for Emax: each ligand normalized to WT (100%);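 for all read-outs here: human OXGR1 variants transiently expressed in HEK293 cells, with intracellular calcium read out by Fluo-4 AM fluorescence, measured 24 h after transfection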
# Procedure: as §1, §2, §3
# [4] = tested on: mock-transfected HEK293 cells; experiment: Calcium assay in mock-transfected (empty vector) HEK293 cells; type: cell-based
# Excerpt: Figure. R3 | Activity of the compounds on OXGR1 using calcium assays.
# Concentration-response curves of the four agonists in activating OXGR1 through the calcium assays. HEK293 cells were transfected with OXGR1 or empty vector by electroporation.
# Cells were then loaded with Fluo-4 AM and intracellular calcium changes after stimulation with different compounds were monitored. Responses were normalized to 100% for the maximal response of each compound on OXGR1. Data are mean ± S.E.M. from three independent experiments (n = 3), with three technical replicates performed for each […]
# (1 picture or pasted object on this page, not shown here)
smiles,measurement,setting,value
"O=C(O)/C=C\C(=O)O [MA, maleate]",Emax,"[1]; HEK293, SUCR1 WT, Emax relative to the SUC, read-out: Emax",89 ± 1%
same,EC50,[1]; SUCR1 WT,210 ± 70 µM
same,EC50,"[2]; EC50, OXGR1 WT, mutant series (Appendix Table S4)",2000 ± 400 µM
same,Emax,"[2]; HEK293, OXGR1 WT, each ligand normalized to WT (100%)",100 ± 4%
same,activity in OXGR1-transfected HEK293 cells,[2]; in words,robust activity
same,EC50,[3]; OXGR1 D185A,> 1000 µM
same,Emax,[3]; OXGR1 D185A,11± 3 WT%
same,Emax,[3]; OXGR1 E97A,79± 7 WT%
same,EC50,[3]; OXGR1 F113A,> 1000 µM
same,Emax,[3]; OXGR1 F113A,5.1± 10 WT%
same,EC50,[3]; OXGR1 F113W,1000 ± 370 µM
same,increase in potency by F113W mutation,[3]; OXGR1 F113W versus WT,~ 2 fold
same,Emax,[3]; OXGR1 F113W,99± 14 WT%
same,EC50,[3]; OXGR1 F257A,> 1000 µM
same,Emax,[3]; OXGR1 F257A,6.6± 7 WT%
same,EC50,[3]; OXGR1 F257Y,1900 ± 300 µM
same,Emax,[3]; OXGR1 F257Y,93± 2 WT%
same,EC50,[3]; OXGR1 H114A,4200 ± 300 µM
same,Emax,[3]; OXGR1 H114A,79± 4 WT%
same,EC50,[3]; OXGR1 H114L,> 1000 µM
same,Emax,[3]; OXGR1 H114L,-4.4± 2 WT%
same,Emax,[3]; OXGR1 H281A,67±4 WT%
same,EC50,[3]; OXGR1 I172A,> 1000 µM
same,Emax,[3]; OXGR1 I172A,11± 2 WT%
same,EC50,[3]; OXGR1 L36A,> 1000 µM
same,Emax,[3]; OXGR1 L36A,10± 3 WT%
same,EC50,[3]; OXGR1 L89A,> 1000 µM
same,Emax,[3]; OXGR1 L89A,6.9± 1 WT%
same,EC50,[3]; OXGR1 L186A,> 1000 µM
same,Emax,[3]; OXGR1 L186A,14± 2 WT%
same,EC50,[3]; OXGR1 L186F,> 10000 µM
same,Emax,[3]; OXGR1 L186F,58± 4 WT%
same,EC50,[3]; OXGR1 L299P,> 1000 µM
same,Emax,[3]; OXGR1 L299P,7.8±3 WT%
same,activation of OXGR1 L299P,"[3]; OXGR1 L299P, in words",abolished
same,EC50,[3]; OXGR1 M168I,3200 ± 300 µM
same,Emax,[3]; OXGR1 M168I,71± 0.9 WT%
same,EC50,[3]; OXGR1 N28A,580 ± 30 µM
same,Emax,[3]; OXGR1 N28A,120± 2 WT%
same,EC50,[3]; OXGR1 R110A,> 1000 µM
same,Emax,[3]; OXGR1 R110A,-4.4± 2 WT%
same,EC50,[3]; OXGR1 R110E,> 10000 µM
same,Emax,[3]; OXGR1 R110E,36± 30 WT%
same,EC50,[3]; OXGR1 R110Q,> 1000 µM
same,Emax,[3]; OXGR1 R110Q,14± 5 WT%
same,Emax,[3]; OXGR1 R177A,130± 8 WT%
same,EC50,[3]; OXGR1 R264A,> 10000 µM
same,Emax,[3]; OXGR1 R264A,54± 5 WT%
same,EC50,[3]; OXGR1 R268A,> 1000 µM
same,Emax,[3]; OXGR1 R268A,22± 4 WT%
same,EC50,[3]; OXGR1 R288A,> 1000 µM
same,Emax,[3]; OXGR1 R288A,-2.1±4 WT%
same,EC50,[3]; OXGR1 R288E,> 1000 µM
same,EC50,[3]; OXGR1 R288Q,> 1000 µM
same,Emax,[3]; OXGR1 R288Q,16±2 WT%
same,EC50,[3]; OXGR1 Y40A,> 1000 µM
same,Emax,[3]; OXGR1 Y40A,-1.9± 6 WT%
same,EC50,[3]; OXGR1 Y93A,> 1000 µM
same,Emax,[3]; OXGR1 Y93A,17± 20 WT%
same,EC50,[3]; OXGR1 Y284A,> 1000 µM
same,Emax,[3]; OXGR1 Y284A,4.8±4 WT%
same,activity in mock-transfected cells,[4],no activity
